From US20220330549A1, “USE OF N-BENZYLBENZAMIDE-BASED COMPOUND AS HERBICIDE” (Northwest A&F University, priority 2020, published 2022)

Columns and labels:
Type in all cases: in vivo
Amaranthus retroflexus [1] = assay: Herbicidal activity test for indoor pre-emergence soil treatment; set-up: key: 1-9 levels; higher = more weed remaining vs blank control; conditions: 150 g a.i./ha, visual inspection 21 days after treatment
How it was run: (§1)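 Pre-emergence soil spray per NY/T 1155.3-2006: weed seeds sown in moistened neutral sandy loam (organic content ≤2%), covered with 0.5–2.0 cm soil, then sprayed 24 h later with a water-diluted 10% emulsifiable concentrate at 150 g(a.i.)/ha. Visual rating after 21 days on a 1–9 scale.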

Digitaria sanguinalis [2] = assay: as above; set-up: key: 1-9 levels; higher = more weed remaining vs blank control; conditions: 150 g a.i./ha, visual inspection 21 days after treatment
How it was run: as §1

Barnyard grass [3] = assay: as above; set-up: key: level 1-9; higher = more weed remaining vs blank control; conditions: 150 g a.i./ha, visual inspection 21 days after treatment
How it was run: as §1

Piemarker [4] = assay: as above; set-up: key: level 1-9; higher = more weed remaining vs blank control; conditions: 150 g a.i./ha, visual inspection 21 days after treatment
How it was run: as §1

green bristlegrass [5] = assay: as above; set-up: key: level 1-9; higher = more weed remaining vs blank control; conditions: 150 g a.i./ha, visual inspection 21 days after treatment
How it was run: as §1

goosegrass = assay: Field test for weed control in a corn field; conditions: 150 g a.i./ha, after treatment
How it was run: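 In this field trial in corn, run per GB/T 17980.42-2000, test agents prepared as 10% emulsifiable concentrates were applied in water as sprays at 150 g(a.i.)/ha at the 2- to 5-leaf corn stage. Each treatment covered 20 m^2 and was repeated 4 times. Goosegrass control was scored 1-9 relative to weed remaining in blank control areas.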

Convolvulus arvensis = assay: Field test for weed control in a corn field; conditions: 150 g a.i./ha, after treatment
How it was run: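 Post-emergence herbicidal activity on Convolvulus arvensis was scored in a corn field on a 1-9 scale, based on symptoms and damage severity. Each level corresponds to the weed remaining as a percentage of the blank control area. Sprays of 10% emulsifiable concentrate at 150 g(a.i.)/ha went on at the corn 2–5 leaf stage, with four replicates of 20 m^2 per treatment.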

Portulaca oleracea = assay: Field test for weed control in a corn field; conditions: 150 g a.i./ha, after treatment
How it was run: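 Post-emergence weed control was evaluated in a corn field by the GB/T 17980.42-2000 method. Emulsifiable concentrates (10%) in water were applied as sprays at 150 g(a.i.)/ha at the 2-5 leaf corn stage, in four replicate 20 m^2 plots. A 25% mesotrione oil dispersion served as control agent. Effects were graded 1-9 relative to weed remaining in blank control areas.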

Barnyard grass [6] = assay: Field test for weed control in a corn field; conditions: 150 g a.i./ha, 30 days after treatment
How it was run: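 Herbicidal activity against barnyard grass was assessed in corn field plots of 20 m^2, with four replicates per treatment. Compounds were applied as water-diluted 10% emulsifiable concentrates at 150 g(a.i.)/ha at the 2-5 leaf corn stage, with 25% mesotrione oil dispersion as the reference agent. Damage was scored on a 1-9 scale against untreated blank plots.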

Acalypha australis = assay: Field test for weed control in a corn field; conditions: 150 g a.i./ha, after treatment
How it was run: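 Herbicidal activity against weeds was assessed in corn plots by the GB/T 17980.42-2000 method. Corn at the 2–5 leaf stage received water sprays of 10% emulsifiable concentrates at 150 g(a.i.)/ha, four repeats per treatment over 20 m^2. A 25% mesotrione oil dispersion was the reference. Damage symptoms and severity were rated on levels 1-9 relative to weeds in the blank control area.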

green bristlegrass [7] = assay: Field test for weed control in a corn field; conditions: 150 g a.i./ha, after treatment
How it was run: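 Herbicidal activity against green bristlegrass was assessed in corn field plots of 20 m^2 per GB/T 17980.42-2000. Test agents, formulated as 10% emulsifiable concentrates, were applied in water at 150 g(a.i.)/ha at the corn 2 leaves to 5 leaves stage, repeated 4 times. A 25% mesotrione oil dispersion served as the control agent, and weed damage was rated on levels 1-9.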

Solanum nigrum = assay: Field test for weed control in a corn field; conditions: 150 g a.i./ha, 30 days after treatment
How it was run: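 In a corn field trial based on GB/T 17980.42-2000, 10% emulsifiable concentrates diluted in water were sprayed at 150 g(a.i.)/ha at the 2 to 5 leaf stage of corn. Each treatment used 20 m^2 plots and was repeated 4 times, with 25% mesotrione oil dispersion as the reference agent. Solanum nigrum damage was scored on a 1-9 scale against blank control plots.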

Amaranthus retroflexus [8] = assay: Field test for weed control in a corn field; conditions: 150 g a.i./ha, 30 days after treatment
How it was run: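 Post-emergence control of Amaranthus retroflexus was assessed in corn plots using the GB/T 17980.42-2000 method. Emulsifiable concentrates (10%) in water were applied by spraying at the 2- to 5-leaf crop stage on 20 m^2 plots, four replicates each, alongside a mesotrione 25% oil dispersion reference. Herbicidal activity was scored on 1-9 levels by weed amount relative to blank control areas.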

Chenopodium album = assay: Field test for weed control in a corn field; conditions: 150 g a.i./ha, after treatment
How it was run: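 Field weed-control testing in corn, run per GB/T 17980.42-2000, scored Chenopodium album on a 1-9 level scale, where each level matches a percentage range of weed remaining relative to the blank control area. Sprays of 10% emulsifiable concentrates in water delivered 150 g(a.i.)/ha at the corn 2-leaf to 5-leaf stage on 20 m^2 plots, four replicates each. Mesotrione 25% oil dispersion served as reference.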

nutgrass flatsedge = assay: Field test for weed control in a corn field; conditions: 150 g a.i./ha, after treatment
How it was run: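 Herbicidal effect on nutgrass flatsedge was measured in a field planted with corn, using the GB/T 17980.42-2000 method. Emulsifiable concentrates (10%) in water were sprayed at 150 g(a.i.)/ha during the 2-leaf to 5-leaf corn stage, on 20 m^2 plots repeated 4 times. 25% mesotrione oil dispersion was the control agent. Activity was scored from 1 to 9 by weed remaining relative to blank control plots.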

Digitaria sanguinalis [9] = assay: Field test for weed control in a corn field; conditions: 150 g a.i./ha, after treatment
How it was run: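 Field trial in a corn field following GB/T 17980.42-2000. Test compounds were formulated as 10% emulsifiable concentrates, diluted in water and sprayed post-emergence at 150 g(a.i.)/ha when corn had 2 to 5 leaves, with 4 replicates on 20 m^2 plots. Control of Digitaria sanguinalis was scored on a 1-9 scale based on weed damage relative to the untreated blank area.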

Gramineae = assay: Post-emergence herbicidal activity test in a paddy field; set-up: key: level scale; higher level = more weed left vs blank control; conditions: 150 g a.i./ha (penoxsulam control 250 g(a.i.)/h)
How it was run: (§2)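 Efficacy was visually estimated 15 and 30 days after spraying, grading weed coverage relative to an untreated neighbouring plot (level 2 = 0 to 2.5%, level 9 = 67.6 to 100%). Treatments were 150 g(a.i.)/ha from 10% emulsifiable concentrates applied at the 4-5 leaf rice stage, four repeats of 50 m^2 each.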

Broadleaf weed = assay: as above; set-up: key: level scale; higher level = more weed left vs blank control; conditions: 150 g a.i./ha (penoxsulam control 250 g(a.i.)/h)
How it was run: as §2

Cyperaceae = assay: as above; set-up: key: level scale; higher level = more weed left vs blank control; conditions: 150 g a.i./ha (penoxsulam control 250 g(a.i.)/h)
How it was run: as §2

Humulus scandens [10] = assay: Herbicidal activity test for indoor post-emergence spraying on stems and leaves; set-up: key: grade level by weed remaining vs blank control, e.g. 5 = 10.1-15%; conditions: 150 g a.i./ha, visual inspection 21 days after treatment
How it was run: (§3)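 Following national standard NY/T 1155.4-2006, seedlings raised in a greenhouse receive stem-and-leaf spraying after emergence; 21 days on, surviving weed is compared by eye with the blank control area and assigned a graded level (e.g., level 6 = 15.1–25%).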

Barnyard grass [11] = assay: as above; set-up: key: grade level by weed remaining vs blank control, e.g. 5 = 10.1-15%; conditions: 150 g a.i./ha, visual inspection 21 days after treatment
How it was run: as §3

Piemarker [12] = assay: as above; set-up: key: grade level by weed remaining vs blank control, e.g. 5 = 10.1-15%; conditions: 150 g a.i./ha, visual inspection 21 days after treatment
How it was run: as §3

green bristlegrass [13] = assay: as above; set-up: key: grade level by weed remaining vs blank control, e.g. 5 = 10.1-15%; conditions: 150 g a.i./ha, visual inspection 21 days after treatment
How it was run: as §3

Amaranthus retroflexus [14] = assay: as above; set-up: key: grade level by weed remaining vs blank control, e.g. 5 = 10.1-15%; conditions: 150 g a.i./ha, visual inspection 21 days after treatment
How it was run: as §3

Digitaria sanguinalis [15] = assay: as above; set-up: key: grade level by weed remaining vs blank control, e.g. 5 = 10.1-15%; conditions: 150 g a.i./ha, visual inspection 21 days after treatment
How it was run: as §3

Humulus scandens [16] = assay: Herbicidal activity test for indoor pre-emergence soil treatment; conditions: 150 g a.i./ha, visual inspection 21 days after treatment
How it was run: as §1

SMILES	Herbicidal Activity Amaranthus retroflexus (Amaranthus retroflexus [1])	Herbicidal Activity Digitaria sanguinalis (Digitaria sanguinalis [2])	Herbicidal Activity Barnyard grass (Barnyard grass [3])	Herbicidal Activity Piemarker (Piemarker [4])	Herbicidal Activity Green bristlegrass (green bristlegrass [5])	Post-emergence weed control effect, Goose grass (goosegrass)	Post-emergence weed control effect, Convolvulus arvensis (Convolvulus arvensis)	Post-emergence weed control effect, Portulaca oleracea (Portulaca oleracea)	Post-emergence weed control effect, Barnyard grass (Barnyard grass [6])	Post-emergence weed control effect, Acalypha australis (Acalypha australis)	Post-emergence weed control effect, Green bristlegrass (green bristlegrass [7])	Post-emergence weed control effect, Solanum nigrum (Solanum nigrum)	Post-emergence weed control effect, Amaranthus retroflexus (Amaranthus retroflexus [8])	Post-emergence weed control effect, Chenopodium album (Chenopodium album)	Post-emergence weed control effect, Nutgrass flatsedge (nutgrass flatsedge)	Post-emergence weed control effect, Digitaria sanguinalis (Digitaria sanguinalis [9])	Herbicidal activity 15 days after treatment Gramineae (Gramineae)	Herbicidal activity 30 days after treatment Gramineae (Gramineae)	Herbicidal activity 15 days after treatment Broadleaf weed (Broadleaf weed)	Herbicidal activity 30 days after treatment Broadleaf weed (Broadleaf weed)	further results
Cc1ccc(CNC(=O)c2cccc(C)c2)cc1 [Compound B15]	2 (equivalent to 0 to 2.5% of the weed in the blank control area)	1	1	1	2 (equivalent to 0 to 2.5% of the weed in the blank control area)	2 (equivalent to 0 to 2.5% of the weed in the blank control area)	2 (equivalent to 0 to 2.5% of the weed in the blank control area)	1	1	1	2 (equivalent to 0 to 2.5% of the weed in the blank control area)	1	1	1	2 (equivalent to 0 to 2.5% of the weed in the blank control area)	2 (equivalent to 0 to 2.5% of the weed in the blank control area)	2 (equivalent to 0 to 2.5% of the weed in the blank control area)	1	1	1	Herbicidal activity 15 days after treatment Cyperaceae (Cyperaceae): 1; Herbicidal activity 30 days after treatment Cyperaceae (Cyperaceae): 2 (equivalent to 0 to 2.5% of the weed in the blank control area); Herbicidal Activity Humulus scandens (Humulus scandens [10]): 1; Herbicidal Activity Barnyard grass (Barnyard grass [11]): 1; Herbicidal Activity Piemarker (Piemarker [12]): 1; Herbicidal Activity Green bristlegrass (green bristlegrass [13]): 1; Herbicidal Activity Amaranthus retroflexus (Amaranthus retroflexus [14]): 1; Herbicidal Activity Digitaria sanguinalis (Digitaria sanguinalis [15]): 1; Herbicidal Activity Humulus scandens (Humulus scandens [16]): 3 (equivalent to 2.6 to 5% of the weed in the blank control area)
Cc1cccc(C(=O)NCc2cccc(F)c2)n1 [Compound B22]	1	1	1	1	1	2 (equivalent to 0 to 2.5% of the weed in the blank control area)	1	1	1	1	1	2 (equivalent to 0 to 2.5% of the weed in the blank control area)	1	1	2 (equivalent to 0 to 2.5% of the weed in the blank control area)	2 (equivalent to 0 to 2.5% of the weed in the blank control area)	1	1	1	1	Herbicidal activity 15 days after treatment Cyperaceae (Cyperaceae): 1; Herbicidal activity 30 days after treatment Cyperaceae (Cyperaceae): 1; Herbicidal Activity Humulus scandens (Humulus scandens [10]): 1; Herbicidal Activity Barnyard grass (Barnyard grass [11]): 1; Herbicidal Activity Piemarker (Piemarker [12]): 1; Herbicidal Activity Green bristlegrass (green bristlegrass [13]): 1; Herbicidal Activity Amaranthus retroflexus (Amaranthus retroflexus [14]): 1; Herbicidal Activity Digitaria sanguinalis (Digitaria sanguinalis [15]): 1; Herbicidal Activity Humulus scandens (Humulus scandens [16]): 2 (equivalent to 0 to 2.5% of the weed in the blank control area)
